Measurements: PubChem BioAssay AID330 (DTP/NCI, 2004)
Values joined by “and” are separate entries in the source; they are usually repeats but may differ in a detail not shown here. Equal entries are not always repeated. Toxic doses and inconclusive results are not listed. Rule for the calls: active = survival T/C of 150% or more; inactive = T/C below 125% in these data.

Test system: P388 leukemia ip, CD2F1 mice, survival T/C
Test: NCI In Vivo Anticancer Drug Screen. Data for tumor model P388 Leukemia (intraperitoneal) in CD2F1 (CDF1) mice
Settings: endpoint: median survival time, higher = longer survival
Method in brief: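 Mice carrying the transplanted tumor received test compound or vehicle. Survival was recorded in each group, and the value is the treated-group measurement divided by that of the vehicle-treated control group.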

[1] = dose: 100.0 mg/kg/injection, schedule: Q01DX009 (ip), vehicle: saline with Tween-80
[2] = dose: 200.0 mg/kg/injection, schedule: Q01DX009 (ip), vehicle: saline with Tween-80
[3] = dose: 400.0 mg/kg/injection, schedule: Q01DX009 (ip), vehicle: saline with Tween-80
[4] = dose: 50.0 mg/kg/injection, schedule: Q01DX005 (ip), vehicle: Klucel (hydroxypropylcellulose) (HPC)
[5] = dose: 100.0 mg/kg/injection, schedule: Q01DX005 (ip), vehicle: Klucel (hydroxypropylcellulose) (HPC)
[6] = dose: 200.0 mg/kg/injection, schedule: Q01DX005 (ip), vehicle: Klucel (hydroxypropylcellulose) (HPC)
[7] = dose: 50.0 mg/kg/injection, schedule: Q01DX009 (ip), vehicle: Klucel (hydroxypropylcellulose) (HPC)
[8] = dose: 100.0 mg/kg/injection, schedule: Q01DX009 (ip), vehicle: Klucel (hydroxypropylcellulose) (HPC)
[9] = dose: 50.0 mg/kg/injection, schedule: Q01DX005 (ip), vehicle: saline with Tween-80
[10] = dose: 100.0 mg/kg/injection, schedule: Q01DX005 (ip), vehicle: saline with Tween-80
[11] = dose: 200.0 mg/kg/injection, schedule: Q01DX005 (ip), vehicle: saline with Tween-80
[12] = dose: 12.5 mg/kg/injection, schedule: Q01DX009 (ip), vehicle: saline with Tween-80
[13] = dose: 25.0 mg/kg/injection, schedule: Q01DX009 (ip), vehicle: saline with Tween-80
[14] = dose: 50.0 mg/kg/injection, schedule: Q01DX009 (ip), vehicle: saline with Tween-80
[15] = dose: 100.0 mg/kg/injection, schedule: Q04DX003 (ip), vehicle: saline with Tween-80
[16] = dose: 200.0 mg/kg/injection, schedule: Q04DX003 (ip), vehicle: saline with Tween-80
[17] = dose: 60.0 mg/kg/injection, schedule: Q01DX005 (ip), vehicle: Klucel (hydroxypropylcellulose) (HPC)
[18] = dose: 120.0 mg/kg/injection, schedule: Q01DX005 (ip), vehicle: Klucel (hydroxypropylcellulose) (HPC)
[19] = dose: 240.0 mg/kg/injection, schedule: Q01DX005 (ip), vehicle: Klucel (hydroxypropylcellulose) (HPC)

Measured: T/C

CC1CC(O)C2C1CC1CCC2(C)OC1(C)C (stereo not given)
inactive: [1] 105 % of control | [2] 105 % of control | [3] 100 % of control

O=c1c2sc3ccccc3c2ncn1/N=C/c1cccc(Cl)c1
inactive: [4] 96 % of control | [5] 97 % of control | [6] 88 % of control

COc1cc(OC)c(NC(=O)N(NC(=O)NNc2ccccc2)c2ccccc2)cc1Cl
inactive: [4] 100 % of control | [5] 100 % of control | [6] 95 % of control

COc1cc(OC)c(-c2cc(C(=O)O)c3cc4ccccc4cc3n2)c(OC)c1
inactive: [7] 89 % of control | [8] 99 % of control | dose: 200.0 mg/kg/injection, schedule: Q01DX009 (ip), vehicle: Klucel (hydroxypropylcellulose) (HPC) 97 % of control

CCOC(=O)C1(C)C(=O)C=C(c2ccccc2)CC1c1ccccc1 (stereo not given)
inactive: [9] 95 % of control | [10] 100 % of control | [11] 95 % of control

Cc1ccc(N=NN(C)C)cc1
inactive: [12] 110 % of control | dose: 12.5 mg/kg/injection, schedule: Q04DX003 (ip), vehicle: saline with Tween-80 104 % of control | [13] 115 % of control | dose: 25.0 mg/kg/injection, schedule: Q04DX003 (ip), vehicle: saline with Tween-80 100 % of control | dose: 33.0 mg/kg/injection, schedule: Q01DX009 (ip), vehicle: saline with Tween-80 118 % of control | [14] 122 % of control | dose: 50.0 mg/kg/injection, schedule: Q04DX003 (ip), vehicle: saline with Tween-80 109 % of control

CC1(C)CC(NC(=O)C(C)(C)Oc2ccc(Cl)cc2)CC(C)(C)N1
inactive: [9] 107 % of control | [10] 100 % of control | [11] 98 % of control

Clc1ccc(N2C(c3ccccc3)=N[C@@H](N3CCOCC3)[C@@H]2N2CCOCC2)cc1
inactive: [4] 100 % of control | [5] 100 % of control | [6] 105 % of control

ClC1CCCC[N-]1.ClC1CCCC[N-]1.[Cl][Pt+2][Cl] (stereo not given)
inactive: [12] 109 % of control | [13] 103 % of control | [14] 101 % of control | [1] 97 % of control | [2] 99 % of control

Cn1c(=O)c2cc(O)cnc2n(C)c1=O
inactive: [15] 95 % of control | [16] 91 % of control | dose: 400.0 mg/kg/injection, schedule: Q04DX003 (ip), vehicle: saline with Tween-80 86 % of control

COC(=O)CC1SC(=S)N(Cc2ccc(Cl)cc2)C1=O (stereo not given)
inactive: [17] 94 % of control | [18] 90 % of control | [19] 90 % of control

O=[N+]([O-])c1ccc(C2CC(c3ccccc3)=Nc3ccccc3S2)cc1 (stereo not given)
inactive: dose: 12.5 mg/kg/injection, schedule: Q01DX009 (ip), vehicle: saline 97 % of control | dose: 25.0 mg/kg/injection, schedule: Q01DX009 (ip), vehicle: saline 92 % of control | dose: 50.0 mg/kg/injection, schedule: Q01DX009 (ip), vehicle: saline 97 % of control

Cc1ccc(S(=O)(=O)Nn2nnc(-c3ccccc3)n2)cc1
inactive: dose: 50.0 mg/kg/injection, schedule: Q04DX003 (ip), vehicle: Klucel (hydroxypropylcellulose) (HPC) 98 % of control | dose: 100.0 mg/kg/injection, schedule: Q04DX003 (ip), vehicle: Klucel (hydroxypropylcellulose) (HPC) 102 % of control | dose: 200.0 mg/kg/injection, schedule: Q04DX003 (ip), vehicle: Klucel (hydroxypropylcellulose) (HPC) 102 % of control

C/C(=C(/O)c1ccc(Cl)cc1)c1nc2cc(Cl)cc([N+](=O)[O-])c2[nH]c1=O
inactive: [17] 100 % of control | [18] 107 % of control | [19] 111 % of control

O=[N+]([O-])c1cc(Br)c2c(c1)CCN2
inactive: dose: 25.0 mg/kg/injection, schedule: Q01DX009 (ip), vehicle: distilled water + Tween-80 98 % of control | dose: 50.0 mg/kg/injection, schedule: Q01DX009 (ip), vehicle: distilled water + Tween-80 100 % of control | dose: 100.0 mg/kg/injection, schedule: Q01DX009 (ip), vehicle: distilled water + Tween-80 97 % of control | dose: 200.0 mg/kg/injection, schedule: Q01DX009 (ip), vehicle: distilled water + Tween-80 103 % of control | dose: 400.0 mg/kg/injection, schedule: Q01DX009 (ip), vehicle: distilled water + Tween-80 116 % of control

CC(C)(C)c1cc(N)cc([N+](=O)[O-])c1
inactive: dose: 100.0 mg/kg/injection, schedule: Q04DX002 (ip), vehicle: other 109 % of control | dose: 200.0 mg/kg/injection, schedule: Q04DX002 (ip), vehicle: other 102 % of control

O=NNc1ccc2ccccc2n1
inactive: dose: 3.12 mg/kg/injection, schedule: Q01DX009 (ip), vehicle: water 122 % of control | dose: 25.0 mg/kg/injection, schedule: Q01DX009 (ip), vehicle: water 91 % of control and 94 % of control

Clc1ccc2c(c1)Oc1ccccc1C=N2
inactive: [14] 107 % of control | [1] 98 % of control | [2] 96 % of control

O=C1c2ccccc2C(=O)c2c(O)ccc3cccc1c23
inactive: dose: 50.0 mg/kg/injection, schedule: Q01DX005 (ip), vehicle: Klucel + Tween-80 92 % of control | dose: 100.0 mg/kg/injection, schedule: Q01DX005 (ip), vehicle: Klucel + Tween-80 92 % of control | dose: 200.0 mg/kg/injection, schedule: Q01DX005 (ip), vehicle: Klucel + Tween-80 92 % of control

O=C(O)/C=C(/CC(=O)O)c1ccc(O)cc1
inactive: [17] 97 % of control | [18] 102 % of control | [19] 100 % of control

OC1C2CC3CC(C2)CC1(C#CC1(O)C2CC4CC(C2)CC1C4)C3 (stereo not given)
inactive: dose: 25.0 mg/kg/injection, schedule: Q01DX009 (ip), vehicle: Klucel (hydroxypropylcellulose) (HPC) 100 % of control | [7] 100 % of control | [8] 93 % of control

O=S1(=O)CCCO1
inactive: dose: 100.0 mg/kg/injection, schedule: Q04DX003 (ip), vehicle: saline 100 % of control | dose: 200.0 mg/kg/injection, schedule: Q04DX003 (ip), vehicle: saline 118 % of control

CCN(CC)CCN1c2ccccc2Sc2c1ccc1ccccc21
inactive: dose: 50.0 mg/kg/injection, schedule: Q01DX005 (ip), vehicle: saline + Tween-80 + alcohol 112 % of control | dose: 100.0 mg/kg/injection, schedule: Q01DX005 (ip), vehicle: saline + Tween-80 + alcohol 107 % of control | dose: 200.0 mg/kg/injection, schedule: Q01DX005 (ip), vehicle: saline + Tween-80 + alcohol 107 % of control

CCOC(=O)CCC(=O)Oc1ccc2c(c1OC(=O)CCC(=O)OCC)C(=O)c1ccccc1C2=O
inactive: [17] 97 % of control | [18] 97 % of control | [19] 95 % of control

O=C1CCS(=O)(=O)CC1
inactive: [13] 108 % of control | [14] 103 % of control and 107 % of control | [1] 114 % of control and 120 % of control | [2] 107 % of control and 123 % of control | [3] 113 % of control and 120 % of control | dose: 600.0 mg/kg/injection, schedule: Q01DX009 (ip), vehicle: saline with Tween-80 123 % of control

O=S(=O)(O)C1CCC(O)C2[N-]CCCC21.O=S(=O)(O)C1CCC(O)C2[N-]CCCC21.[Ni+2] (stereo not given)
inactive: dose: 25.0 mg/kg/injection, schedule: Q01DX001 (ip), vehicle: saline 100 % of control | dose: 50.0 mg/kg/injection, schedule: Q01DX001 (ip), vehicle: saline 100 % of control | dose: 100.0 mg/kg/injection, schedule: Q01DX001 (ip), vehicle: saline 110 % of control

Cc1cc2nc3ccc(N(C)C)cc3nc2cc1N
inactive: dose: 12.5 mg/kg/injection, schedule: Q01DX005 (ip), vehicle: saline 96 % of control | dose: 25.0 mg/kg/injection, schedule: Q01DX005 (ip), vehicle: saline 100 % of control | [9] 95 % of control | dose: 50.0 mg/kg/injection, schedule: Q01DX005 (ip), vehicle: saline 112 % of control

O=C(O)c1cc2ccccc2[nH]c1=O
inactive: [4] 97 % of control | [5] 97 % of control | [6] 104 % of control

CCCc1c2c(c(CCC)c3c1-c1cccc4cccc-3c14)-c1ccccc1C2=O
inactive: [15] 105 % of control | [16] 95 % of control
